Test results from the supplement of paper PMC10627819.

Experiments:
[1] = tested on: S. pneumoniae D39V; assay: fitness (endpoint OD595 vs no drug) (fraction); higher = more growth
Summary of the method: (§1)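 Plates with 384 wells were inoculated at OD595 0.01 using 30 µl of TSB, LB Lennox or CY, or 55 µl for S. pneumoniae. Incubation was at 37 °C, with OD595 measured every 30 min for 14 h. Fitness is the stationary-phase transition optical density over the robust mean of no-drug control wells, after first-reading background subtraction; it is capped at 1.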

[2] = tested on: S. aureus Newman; assay: as above
Summary of the method: as §1

[3] = tested on: S. aureus DSM 20231; assay: as above
Summary of the method: as §1

[4] = tested on: S. pneumoniae D39V; assay: Bliss interaction score (quartile over a dose matrix) (fitness difference); higher = more antagonism (negative = synergy)
Summary of the method: (§2)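 Values were capped at 1 after dividing OD595 at stationary-phase entry by the plate's robust no-drug mean. This ratio is fitness, and single-drug fitness was inferred from the combination data. The Bliss score is observed minus product-expected fitness, given as quartiles over technical, biological and donor/recipient replicates.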

[5] = tested on: B. subtilis 168; assay: as above
Summary of the method: as §2

[6] = tested on: S. aureus Newman; assay: as above
Summary of the method: as §2

[7] = tested on: S. aureus DSM 20231; assay: as above
Summary of the method: as §2
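For Bliss interaction score (quartile over a dose matrix) in this document: first quartile when negative (synergy) and third quartile when positive (antagonism).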

CO/N=C(\C(=O)N[C@@H]1C(=O)N2C(C(=O)[O-])=C(C[N+]3(C)CCCC3)CS[C@H]12)c1csc(N)n1 [Cefepime] + COc1ccc(C[C@H](N)C(=O)N[C@H]2[C@@H](O)[C@H](n3cnc4c(N(C)C)ncnc43)O[C@@H]2CO)cc1 [Puromycin]
Conditions | fitness
[1], first compound 0.007 µg/mL, partner 1 µg/mL | ≥ 1
[1], first compound 0.007 µg/mL, partner 2 µg/mL | 0.993
[1], first compound 0.007 µg/mL, partner 4 µg/mL | 0.873
[1], first compound 0.014 µg/mL, partner 1 µg/mL | ≥ 1
[1], first compound 0.014 µg/mL, partner 2 µg/mL | ≥ 1
[1], first compound 0.014 µg/mL, partner 4 µg/mL | 0.876
[1], first compound 0.028 µg/mL, partner 1 µg/mL | 0.961
[1], first compound 0.028 µg/mL, partner 2 µg/mL | 0.944
[1], first compound 0.028 µg/mL, partner 4 µg/mL | 0.771
[2], first compound 0.125 µg/mL, partner 0.39 µg/mL | 0.898
[2], first compound 0.125 µg/mL, partner 0.78 µg/mL | 0.94
[2], first compound 0.125 µg/mL, partner 1.56 µg/mL | 0.9
[2], first compound 0.25 µg/mL, partner 0.39 µg/mL | 0.831
[2], first compound 0.25 µg/mL, partner 0.78 µg/mL | 0.865
[2], first compound 0.25 µg/mL, partner 1.56 µg/mL | 0.865
[2], first compound 0.5 µg/mL, partner 0.39 µg/mL | 0.728
[2], first compound 0.5 µg/mL, partner 0.78 µg/mL | 0.764
[2], first compound 0.5 µg/mL, partner 1.56 µg/mL | 0.775
[3], first compound 0.125 µg/mL, partner 0.39 µg/mL | 0.867
[3], first compound 0.125 µg/mL, partner 0.78 µg/mL | ≥ 1
[3], first compound 0.125 µg/mL, partner 1.56 µg/mL | 0.965
[3], first compound 0.25 µg/mL, partner 0.39 µg/mL | 0.932
[3], first compound 0.25 µg/mL, partner 0.78 µg/mL | 0.951
[3], first compound 0.25 µg/mL, partner 1.56 µg/mL | 0.924
[3], first compound 0.5 µg/mL, partner 0.78 µg/mL | 0.952
[3], first compound 0.5 µg/mL, partner 1.56 µg/mL | 0.907

fitness, one replicate
Conditions | first compound 0.0078 µg/mL | first compound 0.0155 µg/mL | first compound 0.031 µg/mL | first compound 0.125 µg/mL | first compound 0.25 µg/mL | first compound 0.5 µg/mL
[1], partner 1 µg/mL | 0.979 | 0.896 | 0.42 | – | – | –
[1], partner 2 µg/mL | 0.927 | 0.881 | 0.449 | – | – | –
[1], partner 4 µg/mL | 0.868 | 0.845 | 0.314 | – | – | –
[3], partner 3.12 µg/mL | – | – | – | 0.956 | 0.911 | 0.871
[3], partner 6.24 µg/mL | – | – | – | 0.781 | 0.857 | 0.716

Conditions | Bliss interaction score
[4] | 0.132
[5] | 0.0941
[6] | -0.0741
[7] | 0.0605

CO/N=C(\C(=O)N[C@@H]1C(=O)N2C(C(=O)[O-])=C(C[N+]3(C)CCCC3)CS[C@H]12)c1csc(N)n1 [Cefepime] + C[C@@H]1O[C@@H]1P(=O)(O)O [Fosfomycin]
Conditions | fitness
[1], first compound 0.007 µg/mL, partner 1.25 µg/mL | 0.966
[1], first compound 0.007 µg/mL, partner 2.5 µg/mL | 0.911
[1], first compound 0.007 µg/mL, partner 5 µg/mL | 0.677
[1], first compound 0.0078 µg/mL, partner 1.25 µg/mL | 0.987
[1], first compound 0.0078 µg/mL, partner 2.5 µg/mL | 0.957
[1], first compound 0.0078 µg/mL, partner 5 µg/mL | 0.755
[1], first compound 0.014 µg/mL, partner 1.25 µg/mL | 0.984
[1], first compound 0.014 µg/mL, partner 2.5 µg/mL | 0.889
[1], first compound 0.014 µg/mL, partner 5 µg/mL | 0.62
[1], first compound 0.0155 µg/mL, partner 1.25 µg/mL | 0.962
[1], first compound 0.0155 µg/mL, partner 2.5 µg/mL | 0.932
[1], first compound 0.0155 µg/mL, partner 5 µg/mL | 0.633
[1], first compound 0.028 µg/mL, partner 1.25 µg/mL | 0.844
[1], first compound 0.028 µg/mL, partner 2.5 µg/mL | 0.707
[1], first compound 0.028 µg/mL, partner 5 µg/mL | 0.273
[1], first compound 0.031 µg/mL, partner 1.25 µg/mL | 0.789
[2], first compound 0.125 µg/mL, partner 0.781 µg/mL | 0.691
[2], first compound 0.125 µg/mL, partner 1.562 µg/mL | 0.599
[2], first compound 0.125 µg/mL, partner 3.124 µg/mL | 0.301
[2], first compound 0.25 µg/mL, partner 0.781 µg/mL | 0.653
[2], first compound 0.25 µg/mL, partner 1.562 µg/mL | 0.587
[2], first compound 0.25 µg/mL, partner 3.124 µg/mL | 0.305
[2], first compound 0.5 µg/mL, partner 0.781 µg/mL | 0.659
[2], first compound 0.5 µg/mL, partner 1.562 µg/mL | 0.568
[2], first compound 0.5 µg/mL, partner 3.124 µg/mL | 0.276
[3], first compound 0.125 µg/mL, partner 0.781 µg/mL | 0.649
[3], first compound 0.125 µg/mL, partner 1.562 µg/mL | 0.503
[3], first compound 0.125 µg/mL, partner 3.124 µg/mL | 0.456
[3], first compound 0.25 µg/mL, partner 0.781 µg/mL | 0.633
[3], first compound 0.25 µg/mL, partner 1.562 µg/mL | 0.512
[3], first compound 0.25 µg/mL, partner 3.124 µg/mL | 0.488
[3], first compound 0.5 µg/mL, partner 0.781 µg/mL | 0.67
[3], first compound 0.5 µg/mL, partner 1.562 µg/mL | 0.559
[3], first compound 0.5 µg/mL, partner 3.124 µg/mL | 0.539

Conditions | Bliss interaction score
[4] | -0.0837
[5] | -0.0571
[6] | 0.16
[7] | -0.0913
